The values below come from patent publication US20230147683A1, “TREATMENT” (UNION Therapeutics A/S, priority 2020, published 2023).

This experiment has as its system European D614G strain of SARS-CoV-2 (BavPat1/2020). The class given is cell-based.

With `O=C(Nc1ccc([N+](=O)[O-])cc1Cl)c1cc(Cl)ccc1O` [niclosamide ethanolamine], the “reduction of intracellular viral RNA level compared to non-treated control” value is reported as 3 fold.
